For two molecules, IC50 results are on record in patent US20150086480A1, “HETEROARYL INHIBITORS OF PDE4” (Tetra Discovery Partners, LLC, priority 2013, published 2015).

SMILES strings stand for the structures.

By IC50 is commonly meant the concentration that inhibits the measured activity by half.

In one experiment the test system is recombinant human PDE4. Particulars: read-out: reported IC50 with respect to inhibiting recombinant human PDE4; cited from earlier work.
For experiment [1], the target named is human PDE4D7 (mutation of serine 54 to aspartic acid) (Homo sapiens, UniProt Q08499, S190D). Put plainly: Kinetic assay of PDE4 activity (cAMP hydrolysis, coupled-enzyme fluorescence). The format is biochemical. Particulars: inhibition of cAMP hydrolysis by human PDE4D; each concentration tested in duplicate; FIG. 1; read-out: One-half maximal inhibition of PDE4D (IC50). The protocol: PDE4D inhibition is measured by the method of Burgin et al, (2010) Design of Phosphodiesterase Type 4D (PDE4D) Allosteric Modulators for Cognition with Improved Safety. Nature Biotechnology 28:63-70. Each concentration of Example 1 was tested in duplicate (round symbols).
human PDE4D7 (mutation of serine 54 to aspartic acid), sequence (Q08499 1-748 isoform Q08499-11 S129D): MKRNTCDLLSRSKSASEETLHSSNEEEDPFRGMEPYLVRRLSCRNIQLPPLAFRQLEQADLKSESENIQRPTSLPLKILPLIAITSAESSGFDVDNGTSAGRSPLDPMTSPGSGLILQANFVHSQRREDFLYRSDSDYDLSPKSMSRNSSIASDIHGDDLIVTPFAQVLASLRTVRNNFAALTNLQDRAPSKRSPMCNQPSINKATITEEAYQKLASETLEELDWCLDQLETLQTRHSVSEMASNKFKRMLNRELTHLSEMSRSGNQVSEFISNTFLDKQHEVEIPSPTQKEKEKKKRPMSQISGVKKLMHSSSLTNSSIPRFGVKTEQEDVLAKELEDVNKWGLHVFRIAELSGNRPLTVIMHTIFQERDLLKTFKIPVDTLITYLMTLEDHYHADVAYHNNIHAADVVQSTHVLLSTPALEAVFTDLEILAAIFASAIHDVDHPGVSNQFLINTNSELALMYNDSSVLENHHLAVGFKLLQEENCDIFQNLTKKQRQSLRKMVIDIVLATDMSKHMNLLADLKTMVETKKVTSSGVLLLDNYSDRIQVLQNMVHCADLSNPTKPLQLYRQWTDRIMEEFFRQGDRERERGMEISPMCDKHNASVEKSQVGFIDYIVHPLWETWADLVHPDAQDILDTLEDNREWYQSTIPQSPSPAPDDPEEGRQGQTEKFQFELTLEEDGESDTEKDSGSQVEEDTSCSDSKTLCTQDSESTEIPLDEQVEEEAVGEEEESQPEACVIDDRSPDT
PDE4 activity may be measured by any method known in the art. Here, a kinetic assay of cAMP hydrolysis by purified PDE4 was used, in which PDE4 activity was measured by coupling the formation of the PDE4 reaction product, 5′-adenosine monophosphate, to the oxidation of reduced nicotinamide adenine dinucleotide (NADH) by the use of three coupling enzymes (myokinase, pyruvate kinase and lactate dehydrogenase), which allows fluorescent determination of reaction rates. Assays are performed in 96-well plates in a total volume of 200 μl/well. Compounds are dissolved in dimethylsulfoxide (DMSO) and added to plates in a volume of 10 μl followed by addition of 165 μl of assay mix. Plates are pre-incubated at 25° C. for 15 min and the reactions are initiated by the addition of 25 μl of cAMP followed by thorough mixing. Reaction rates are measured by monitoring the decrease in fluorescence using excitation at 355 nm and emission at 460 nm for a period of 10 min in a fluorescence plate reader. Initial rates (slopes) are determined from linear portions of the progress curves. […]

For the molecule `COc1ccc(C2CNC(=O)C2)cc1OC1CCCC1` (centres unmarked) [rolipram], the IC50 in the experiment with recombinant human PDE4 was ~200 nM.

With `O=[N+]([O-])c1cccc(-c2cc(Cc3ccc(F)cc3)cc3c2OCC3)c1` [Example 1, 5-[(4-fluorophenyl)methyl]-7-(3-nitrophenyl)-2,3-dihydrobenzofuran], the IC50 in experiment [1] was determined as 0.15 nM.
